According to ChEMBL document CHEMBL1201862, “PubChem BioAssay data set” (2004):
Activity calls are given as the source filed them.

Assays:
[1] = target: X-box-binding protein 1 (Homo sapiens, UniProt P17861); format: functional, Cricetulus griseus;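 further: confirmatory dose-response counter-screen serving a CHOP assay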
[2] = target: T1, Replicative DNA helicase DnaB (Mycobacterium tuberculosis, UniProt P9WMR3); experiment: DnaB intein splicing inhibitors, dose response, biochemical, cell-free fluorescence (AID 449749); format: functional
T1 sequence (P9WMR3 whole entry): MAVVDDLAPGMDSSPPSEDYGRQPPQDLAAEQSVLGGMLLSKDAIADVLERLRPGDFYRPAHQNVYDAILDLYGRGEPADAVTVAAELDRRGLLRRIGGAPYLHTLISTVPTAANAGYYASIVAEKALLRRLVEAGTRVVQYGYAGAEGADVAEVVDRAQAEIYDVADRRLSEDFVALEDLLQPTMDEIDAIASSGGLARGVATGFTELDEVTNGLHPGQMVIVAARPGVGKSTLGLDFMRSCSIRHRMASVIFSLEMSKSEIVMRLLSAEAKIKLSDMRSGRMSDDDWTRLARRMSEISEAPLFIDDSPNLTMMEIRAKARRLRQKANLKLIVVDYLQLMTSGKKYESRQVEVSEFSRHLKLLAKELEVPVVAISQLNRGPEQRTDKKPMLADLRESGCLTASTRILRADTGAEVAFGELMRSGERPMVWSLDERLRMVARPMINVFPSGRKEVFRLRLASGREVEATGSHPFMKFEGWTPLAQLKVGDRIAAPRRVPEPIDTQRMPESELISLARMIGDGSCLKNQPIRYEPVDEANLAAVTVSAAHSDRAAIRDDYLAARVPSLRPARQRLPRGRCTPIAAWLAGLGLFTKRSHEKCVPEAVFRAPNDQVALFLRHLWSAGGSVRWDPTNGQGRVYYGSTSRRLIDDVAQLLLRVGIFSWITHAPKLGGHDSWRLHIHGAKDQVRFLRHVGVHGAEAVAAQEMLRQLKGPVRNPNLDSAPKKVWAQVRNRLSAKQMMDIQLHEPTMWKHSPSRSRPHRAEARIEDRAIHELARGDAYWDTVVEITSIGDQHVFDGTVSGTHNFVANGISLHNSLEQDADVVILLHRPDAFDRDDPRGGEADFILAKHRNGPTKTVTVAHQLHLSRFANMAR

[3] = target: T2, Protein RecA (Mycobacterium tuberculosis, UniProt P9WHJ3); experiment: Fluorescence Cell-Free Homogeneous Dose Retest to Identify Inhibitors of RecA-Intein Splicing Activity. [Related pubchem assays (depositor defined):AID2097, AID2223, AID489010, AID492950]; format: functional
T2 sequence (P9WHJ3 whole entry): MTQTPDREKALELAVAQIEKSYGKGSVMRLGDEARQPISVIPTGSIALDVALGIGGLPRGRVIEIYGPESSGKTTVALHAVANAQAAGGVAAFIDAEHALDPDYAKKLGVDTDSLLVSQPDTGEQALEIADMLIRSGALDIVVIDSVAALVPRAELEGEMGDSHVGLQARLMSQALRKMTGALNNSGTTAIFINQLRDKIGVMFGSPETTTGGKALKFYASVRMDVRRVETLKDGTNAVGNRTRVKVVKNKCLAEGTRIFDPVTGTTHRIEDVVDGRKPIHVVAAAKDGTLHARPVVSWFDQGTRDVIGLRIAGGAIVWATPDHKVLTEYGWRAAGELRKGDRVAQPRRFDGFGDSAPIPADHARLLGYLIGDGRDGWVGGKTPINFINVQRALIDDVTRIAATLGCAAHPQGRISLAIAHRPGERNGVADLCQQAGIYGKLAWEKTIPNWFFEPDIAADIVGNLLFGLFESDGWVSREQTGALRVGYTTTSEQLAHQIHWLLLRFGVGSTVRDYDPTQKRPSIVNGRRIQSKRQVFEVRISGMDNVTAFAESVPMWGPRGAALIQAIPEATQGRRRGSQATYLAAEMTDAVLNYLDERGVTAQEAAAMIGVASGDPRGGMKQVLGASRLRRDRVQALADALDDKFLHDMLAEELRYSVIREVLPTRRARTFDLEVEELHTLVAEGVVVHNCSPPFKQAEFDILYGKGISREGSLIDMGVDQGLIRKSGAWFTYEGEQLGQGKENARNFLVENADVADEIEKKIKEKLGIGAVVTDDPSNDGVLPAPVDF

[4] = growth suppression of PTEN-null colon cells, dose response, cell-based, HCT116 PTEN knockout (AID 1047); format: functional;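 further: HCT116 colon tumor cells with PTEN knocked out; cells exposed to compound for 60 hours before readout; potency for loss of cell viability measured by luminescence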
[5] = growth suppression of beta-catenin-knockout colon cells, dose response, cell-based, HCT116, human colon tumor (AID 1045); format: functional;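 further: HCT116 colon tumor cells with beta catenin knocked out; cells exposed to compound for 60 hours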
[6] = target: Induced myeloid leukemia cell differentiation protein Mcl-1 (Homo sapiens, UniProt Q07820); format: functional
Induced myeloid leukemia cell differentiation protein Mcl-1, sequence (Q07820 whole entry): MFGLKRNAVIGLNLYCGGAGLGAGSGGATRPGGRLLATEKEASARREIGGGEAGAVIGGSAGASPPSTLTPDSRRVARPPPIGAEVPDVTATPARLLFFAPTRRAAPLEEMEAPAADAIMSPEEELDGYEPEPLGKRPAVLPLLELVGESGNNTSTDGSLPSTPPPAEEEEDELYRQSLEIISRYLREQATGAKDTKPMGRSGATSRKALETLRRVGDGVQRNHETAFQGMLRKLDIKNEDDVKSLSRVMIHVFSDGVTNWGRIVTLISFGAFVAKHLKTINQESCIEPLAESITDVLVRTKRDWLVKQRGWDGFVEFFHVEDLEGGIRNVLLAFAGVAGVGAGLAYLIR

[7] = target: Eukaryotic translation initiation factor 4E (Mus musculus, UniProt P63073); experiment: eIF4E–eIF4G protein interaction inhibitors, dose response, biochemical, TR-FRET (AID 855); format: functional;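 further: potency for disrupting eIF4E binding to eIF4GI seen as loss of FRET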
Eukaryotic translation initiation factor 4E, sequence (P63073 whole entry): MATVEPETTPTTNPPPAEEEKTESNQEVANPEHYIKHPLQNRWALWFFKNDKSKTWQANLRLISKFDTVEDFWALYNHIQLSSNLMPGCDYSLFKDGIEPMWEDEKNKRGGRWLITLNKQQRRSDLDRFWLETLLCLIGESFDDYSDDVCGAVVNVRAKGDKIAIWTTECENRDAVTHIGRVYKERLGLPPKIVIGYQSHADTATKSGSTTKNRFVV

[8] = target: Heat shock protein HSP 90-alpha (Homo sapiens, UniProt P07900); format: functional, organism-based
[9] = target: T3, Small ubiquitin-related modifier 1 (Homo sapiens, UniProt P63165); experiment: inhibitors of SUMO1 peptide binding, dose response, biochemical, fluorescence polarization, uHTS hits (AID 624382); format: functional; conditions: read-out: IC50_Mean
T3 sequence (P63165 whole entry): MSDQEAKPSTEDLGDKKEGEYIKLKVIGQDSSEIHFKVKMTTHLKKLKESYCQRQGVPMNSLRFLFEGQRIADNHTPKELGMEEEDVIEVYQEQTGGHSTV

[10] = target: T3, Small ubiquitin-related modifier 1; experiment: inhibitors of SUMO1 partner interactions, dose response, biochemical, FRET (AID 624383); format: functional; conditions: read-out: IC50_Mean
[11] = target: T4, DNA repair protein RAD52 homolog (Homo sapiens, UniProt P43351); format: functional, biochemical
T4 sequence (P43351 whole entry): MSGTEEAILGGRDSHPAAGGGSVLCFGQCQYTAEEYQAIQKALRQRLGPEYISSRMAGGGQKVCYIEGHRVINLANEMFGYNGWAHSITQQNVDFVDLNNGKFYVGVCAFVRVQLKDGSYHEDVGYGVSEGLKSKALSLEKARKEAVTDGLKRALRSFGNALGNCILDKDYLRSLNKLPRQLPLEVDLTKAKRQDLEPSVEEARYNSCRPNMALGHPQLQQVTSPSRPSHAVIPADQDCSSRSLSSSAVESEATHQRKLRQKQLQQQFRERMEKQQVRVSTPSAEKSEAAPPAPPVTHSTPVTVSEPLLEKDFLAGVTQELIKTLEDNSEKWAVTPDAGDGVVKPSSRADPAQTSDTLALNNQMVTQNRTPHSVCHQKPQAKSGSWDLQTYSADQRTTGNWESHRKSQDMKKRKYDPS

[12] = target: Intestinal-type alkaline phosphatase (Homo sapiens, UniProt P09923); experiment: Dose Response confirmation of uHTS hits from a small molecule inhibitors of human intestinal alkaline phosphatase via a luminescent assay. [Related pubchem assays (depositor defined):AID2544, AID2574]; format: functional
Intestinal-type alkaline phosphatase, sequence (P09923 whole entry): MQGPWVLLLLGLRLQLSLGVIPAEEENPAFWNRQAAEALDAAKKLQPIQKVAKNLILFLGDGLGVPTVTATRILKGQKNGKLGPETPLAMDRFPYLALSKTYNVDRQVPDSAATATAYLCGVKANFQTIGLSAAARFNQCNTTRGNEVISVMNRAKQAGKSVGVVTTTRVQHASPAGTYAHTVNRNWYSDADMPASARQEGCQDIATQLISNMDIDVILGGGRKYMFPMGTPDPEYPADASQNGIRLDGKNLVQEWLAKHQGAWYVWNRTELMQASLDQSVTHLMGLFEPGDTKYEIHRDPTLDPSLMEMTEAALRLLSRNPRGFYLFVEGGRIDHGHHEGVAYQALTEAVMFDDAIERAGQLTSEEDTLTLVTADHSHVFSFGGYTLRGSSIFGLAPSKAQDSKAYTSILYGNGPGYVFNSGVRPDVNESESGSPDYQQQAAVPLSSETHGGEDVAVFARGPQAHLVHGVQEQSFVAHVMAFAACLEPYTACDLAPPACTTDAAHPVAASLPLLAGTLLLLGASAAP

[13] = test system: Streptococcus sp. 'group A'; experiment: growth inhibition of control SK(-) GAS strain, dose response, counter-screen for streptokinase expression inhibitor project, luminescence, kanamycin, BacTiterGlo, confirmation (AID 1900); format: functional, organism-based
[14] = target: T5, Streptokinase A (Streptococcus pyogenes serotype M1, UniProt P10520); experiment: S. pyogenes streptokinase expression inhibitors, potency, dose response, plasminogen activation absorbance, OD405 (AID 1914); format: functional, Streptococcus pyogenes M1 GAS;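 further: secreted streptokinase activity via plasminogen activation per viability signal from cell pellet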
T5 sequence (P10520 whole entry): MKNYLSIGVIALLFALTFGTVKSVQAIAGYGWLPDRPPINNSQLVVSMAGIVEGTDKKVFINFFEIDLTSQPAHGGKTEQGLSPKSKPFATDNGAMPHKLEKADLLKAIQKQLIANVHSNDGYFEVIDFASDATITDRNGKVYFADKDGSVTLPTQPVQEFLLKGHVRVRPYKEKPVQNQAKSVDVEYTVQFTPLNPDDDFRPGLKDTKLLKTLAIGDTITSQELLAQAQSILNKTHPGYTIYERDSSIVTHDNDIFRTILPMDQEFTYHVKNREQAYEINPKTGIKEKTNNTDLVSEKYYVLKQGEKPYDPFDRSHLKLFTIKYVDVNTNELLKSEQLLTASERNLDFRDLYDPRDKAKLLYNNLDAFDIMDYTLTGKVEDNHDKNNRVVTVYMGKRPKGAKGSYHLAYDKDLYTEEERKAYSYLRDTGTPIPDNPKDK

[15] = target: Large T antigen (Simian virus 40, UniProt P03070); format: functional, Betapolyomavirus macacae;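 further: Confirmatory-stage PubChem screen for compounds that inhibit SV40 T antigen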
Large T antigen, sequence (P03070 whole entry): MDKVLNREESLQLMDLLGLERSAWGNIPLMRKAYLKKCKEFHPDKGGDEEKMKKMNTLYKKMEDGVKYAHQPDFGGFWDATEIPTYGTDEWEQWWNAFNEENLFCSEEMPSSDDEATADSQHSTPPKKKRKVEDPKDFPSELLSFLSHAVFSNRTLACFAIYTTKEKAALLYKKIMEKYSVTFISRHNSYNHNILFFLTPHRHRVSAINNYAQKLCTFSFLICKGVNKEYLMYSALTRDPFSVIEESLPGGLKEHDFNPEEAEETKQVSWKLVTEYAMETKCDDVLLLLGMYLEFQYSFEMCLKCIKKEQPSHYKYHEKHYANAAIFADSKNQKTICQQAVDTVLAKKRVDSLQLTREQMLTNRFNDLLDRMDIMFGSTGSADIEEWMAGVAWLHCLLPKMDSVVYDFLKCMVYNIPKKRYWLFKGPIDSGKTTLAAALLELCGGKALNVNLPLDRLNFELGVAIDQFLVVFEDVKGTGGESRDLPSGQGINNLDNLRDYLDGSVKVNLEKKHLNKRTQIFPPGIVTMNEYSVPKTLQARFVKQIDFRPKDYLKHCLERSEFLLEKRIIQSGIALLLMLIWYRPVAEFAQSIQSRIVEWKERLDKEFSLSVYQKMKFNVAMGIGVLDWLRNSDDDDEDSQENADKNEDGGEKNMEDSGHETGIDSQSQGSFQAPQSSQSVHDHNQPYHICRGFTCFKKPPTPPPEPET

[16] = target: T6, Mannose-6-phosphate isomerase (Homo sapiens, UniProt P34949); experiment: inhibitors of human PMI, primary screen, biochemical, fluorescence intensity, coupled assay (AID 1209)
T6 sequence (P34949 whole entry): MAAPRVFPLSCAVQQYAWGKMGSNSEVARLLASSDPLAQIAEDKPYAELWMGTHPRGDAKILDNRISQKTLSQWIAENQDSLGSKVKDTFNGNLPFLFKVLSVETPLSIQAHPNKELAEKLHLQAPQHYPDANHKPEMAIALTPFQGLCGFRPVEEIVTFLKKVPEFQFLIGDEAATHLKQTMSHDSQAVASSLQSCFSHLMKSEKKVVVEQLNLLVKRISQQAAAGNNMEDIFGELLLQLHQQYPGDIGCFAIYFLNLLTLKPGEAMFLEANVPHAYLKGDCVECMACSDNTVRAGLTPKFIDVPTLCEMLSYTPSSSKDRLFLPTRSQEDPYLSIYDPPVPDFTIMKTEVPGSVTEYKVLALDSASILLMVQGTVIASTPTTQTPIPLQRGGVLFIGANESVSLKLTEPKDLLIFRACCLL

[17] = test system: Streptococcus; experiment: Group A Streptococcus viability loss, dose response, counter-screen for streptokinase expression inhibitor project, luminescence, BacTiterGlo (AID 1915); format: functional, organism-based;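 further: potency for reduction of bacterial viability or growth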
[18] = target: T6, Mannose-6-phosphate isomerase; experiment: human PMI inhibitors, high substrate, primary screen, biochemical, fluorescence intensity, high mannose 6-phosphate (AID 1220)
[19] = target: T6, Mannose-6-phosphate isomerase; experiment: PMI enzyme inhibitors, confirmation, biochemical, fluorescence intensity (AID 1535)
[20] = target: DNA dC->dU-editing enzyme APOBEC-3A (Homo sapiens, UniProt P31941); experiment: APOBEC3A DNA deaminase inhibitors, dose response, biochemical (AID 504722); format: functional
DNA dC->dU-editing enzyme APOBEC-3A, sequence (P31941 whole entry): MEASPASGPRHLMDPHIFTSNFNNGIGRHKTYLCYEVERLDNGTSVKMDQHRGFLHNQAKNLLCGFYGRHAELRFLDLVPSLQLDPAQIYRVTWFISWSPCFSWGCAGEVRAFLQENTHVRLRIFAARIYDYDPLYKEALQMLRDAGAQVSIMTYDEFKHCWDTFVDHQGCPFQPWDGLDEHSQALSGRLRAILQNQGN

[21] = target: Glucose-6-phosphate 1-dehydrogenase (Homo sapiens, UniProt P11413); experiment: human G6PD enzyme inhibitors, dose response, selectivity assay for P. falciparum G6PD inhibitor project, biochemical, fluorescence (AID 504792); format: functional
Glucose-6-phosphate 1-dehydrogenase, sequence (P11413 whole entry): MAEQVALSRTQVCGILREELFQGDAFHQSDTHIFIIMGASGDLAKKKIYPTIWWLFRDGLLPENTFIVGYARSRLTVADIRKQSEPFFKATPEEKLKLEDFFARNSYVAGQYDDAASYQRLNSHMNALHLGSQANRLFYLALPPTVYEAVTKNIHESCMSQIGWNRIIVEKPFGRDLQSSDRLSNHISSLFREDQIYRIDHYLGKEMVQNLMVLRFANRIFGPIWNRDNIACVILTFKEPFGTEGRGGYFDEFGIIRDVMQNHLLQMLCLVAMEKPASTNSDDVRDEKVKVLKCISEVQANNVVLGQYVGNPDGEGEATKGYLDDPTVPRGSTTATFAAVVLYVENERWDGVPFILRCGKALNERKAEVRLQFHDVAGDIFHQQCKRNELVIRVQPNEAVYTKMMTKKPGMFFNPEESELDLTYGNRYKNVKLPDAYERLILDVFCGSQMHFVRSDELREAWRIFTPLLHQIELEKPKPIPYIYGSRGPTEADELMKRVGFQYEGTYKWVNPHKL

[22] = target: T7, Phosphomannomutase 2 (Homo sapiens, UniProt O15305); experiment: Counter screen SAR assay for PMM2 inhibitors via a fluorescence intensity assay. [Related pubchem assays (depositor defined):AID1545, AID1574]
T7 sequence (O15305 whole entry): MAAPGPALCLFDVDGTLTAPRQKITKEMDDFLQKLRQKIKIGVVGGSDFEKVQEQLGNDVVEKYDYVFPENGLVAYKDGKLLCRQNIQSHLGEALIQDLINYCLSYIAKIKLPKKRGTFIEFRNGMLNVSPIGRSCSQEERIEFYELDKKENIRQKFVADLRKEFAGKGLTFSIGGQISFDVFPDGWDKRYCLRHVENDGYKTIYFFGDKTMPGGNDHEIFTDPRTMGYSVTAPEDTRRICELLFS

[23] = target: DNA dC->dU-editing enzyme APOBEC-3G (Homo sapiens, UniProt Q9HC16); experiment: Dose Response confirmation of small molecule APOBEC3G DNA Deaminase Inhibitors via a fluorescence-based single-stranded DNA deaminase assay. [Related pubchem assays (depositor defined):AID493012, AID493028]; format: functional
DNA dC->dU-editing enzyme APOBEC-3G, sequence (Q9HC16 whole entry): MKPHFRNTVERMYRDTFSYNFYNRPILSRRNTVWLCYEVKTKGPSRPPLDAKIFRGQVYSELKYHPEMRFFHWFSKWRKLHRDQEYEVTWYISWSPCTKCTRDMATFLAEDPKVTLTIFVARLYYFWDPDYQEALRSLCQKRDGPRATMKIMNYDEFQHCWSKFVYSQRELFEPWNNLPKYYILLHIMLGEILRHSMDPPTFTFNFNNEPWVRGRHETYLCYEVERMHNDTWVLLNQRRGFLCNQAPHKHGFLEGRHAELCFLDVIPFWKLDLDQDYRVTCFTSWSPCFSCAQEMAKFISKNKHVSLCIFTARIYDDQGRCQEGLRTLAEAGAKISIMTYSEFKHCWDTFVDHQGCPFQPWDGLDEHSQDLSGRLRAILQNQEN

[24] = target: T8, Polyadenylate-binding protein 1 (Homo sapiens, UniProt P11940); experiment: PABP1 MLLE–PAM2 interaction inhibitors, dose response, miRNA deadenylation inhibitor project, biochemical, fluorescence polarization, Cy5-PAM2 peptide, secondary (AID 602260); format: functional; conditions: read-out: IC50_Mean
T8 sequence (P11940 whole entry): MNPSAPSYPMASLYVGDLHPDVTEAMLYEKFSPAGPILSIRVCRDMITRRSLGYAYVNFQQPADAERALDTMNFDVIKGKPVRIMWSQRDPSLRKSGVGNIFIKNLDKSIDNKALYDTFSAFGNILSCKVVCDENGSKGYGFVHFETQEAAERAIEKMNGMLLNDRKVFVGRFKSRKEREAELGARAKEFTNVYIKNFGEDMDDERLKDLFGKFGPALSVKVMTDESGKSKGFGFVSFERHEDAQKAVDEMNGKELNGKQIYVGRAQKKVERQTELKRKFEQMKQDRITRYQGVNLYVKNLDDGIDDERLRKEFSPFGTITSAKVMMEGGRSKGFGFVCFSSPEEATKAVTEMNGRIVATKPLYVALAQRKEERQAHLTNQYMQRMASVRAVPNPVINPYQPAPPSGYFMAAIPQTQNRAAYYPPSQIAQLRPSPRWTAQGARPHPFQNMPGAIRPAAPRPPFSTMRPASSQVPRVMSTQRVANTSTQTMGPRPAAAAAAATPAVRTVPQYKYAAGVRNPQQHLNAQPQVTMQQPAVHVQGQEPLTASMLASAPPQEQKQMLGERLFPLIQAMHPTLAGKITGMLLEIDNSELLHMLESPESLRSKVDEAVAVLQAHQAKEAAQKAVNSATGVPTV

[25] = target: T8, Polyadenylate-binding protein 1; experiment: PABP1 MLLE–PAM2 binding inhibitor potency, dose response, biochemical, fluorescence polarization, FITC-PAM2 peptide (AID 602259); format: functional; conditions: read-out: IC50_Mean
[26] = target: Phosphoethanolamine/phosphocholine phosphatase (Homo sapiens, UniProt Q8TCT1); experiment: SAR assay for compounds that inhibit PHOSPHO1. [Related pubchem assays (depositor defined):AID1545, AID1565, AID1574]
Phosphoethanolamine/phosphocholine phosphatase, sequence (Q8TCT1 whole entry): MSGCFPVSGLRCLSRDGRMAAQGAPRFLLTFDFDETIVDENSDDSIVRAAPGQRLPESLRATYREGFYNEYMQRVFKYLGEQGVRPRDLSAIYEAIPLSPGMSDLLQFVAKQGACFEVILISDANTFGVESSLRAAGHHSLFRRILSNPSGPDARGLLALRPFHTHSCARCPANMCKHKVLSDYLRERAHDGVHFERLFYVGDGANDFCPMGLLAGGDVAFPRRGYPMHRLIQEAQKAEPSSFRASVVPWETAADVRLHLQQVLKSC

X-box-binding protein 1, sequence (P17861 whole entry): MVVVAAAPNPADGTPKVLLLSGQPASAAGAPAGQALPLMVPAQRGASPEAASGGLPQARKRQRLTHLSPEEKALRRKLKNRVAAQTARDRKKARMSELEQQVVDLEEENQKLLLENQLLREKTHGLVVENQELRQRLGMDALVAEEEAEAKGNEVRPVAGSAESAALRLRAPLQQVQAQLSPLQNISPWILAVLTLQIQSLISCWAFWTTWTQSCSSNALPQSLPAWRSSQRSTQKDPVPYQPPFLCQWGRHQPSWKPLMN

Compound: CC1=NN(c2ccccc2)C(=O)/C1=C/c1cc2ccccc2[nH]1
- Absolute IC50 (XBP1) [1]: 10 µM
- AC50 [2]: 19.2 µM (active)
- EC50 [3]: 10.9 µM (active)

Compound: CCCCCCCCCCCCCCCC[n+]1cccc2ccccc21
- EC50 [4]: 0.295 µM (active)
- EC50 [5]: 0.17 µM (active)
- IC50 [6]: 4.32 µM (active)
- IC50 [7]: 5.71 µM (active)
- AC50 [8]: 2.87 µM (active)
- IC50 [9]: > 66.6 µM (inactive)
- IC50 [10]: 8.86 µM (active)
- AC50 [11]: 3.67 µM (active)

Compound: Cc1cc(NC(=O)c2ccc(N3C(=O)C4C5C=CC(C5)C4C3=O)cc2)no1 (configuration not stated)
- IC50 [12]: > 100 µM (inactive)

Compound: O=C(Cn1sc2ccccc2c1=O)NC12CC3CC(CC(C3)C1)C2
- EC50 [13]: 0.637 µM (active)
- EC50 [14]: > 150 µM (not active)
- IC50 [15]: 14 µM (active)
- IC50 [16]: > 50 µM (not active)
- EC50 [4]: 30.2 µM (active)
- EC50 [5]: 22.4 µM (active)
- EC50 [17]: 7.2 µM (active)
- IC50 [18]: > 50 µM (not active)
- IC50 [19]: > 50 µM (inactive)
- IC50 [20]: > 100 µM (inactive)
- IC50 [21]: 13.5 µM (active)
- IC50 [22]: > 100 µM (inactive)
- IC50 [7]: > 64 µM (inactive)
- IC50 [23]: 6.94 µM (active)
- IC50 [24]: > 66 µM (inactive)
- IC50 [25]: > 66 µM (inactive)

Compound: O=C(CSc1nc(-c2cccs2)cc(C(F)(F)F)n1)NCc1ccccc1
- IC50 [12]: > 100 µM (inactive)

Compound: O=c1c2ccc(F)cc2sn1-c1cc(Cl)cc(Cl)c1
- IC50 [19]: > 50 µM (inactive)
- IC50 [22]: > 100 µM (inactive)
- IC50 [26]: > 100 µM (inactive)
